In patent publication US20240409536A1, “COMPOUNDS AND METHODS FOR MODULATING SPLICING” (REMIX THERAPEUTICS INC., priority 2021, published 2024):
pIC50: −log10 of the molar value. Like-named read-outs stand apart in the source and are kept apart here.

What was measured:
HTT mRNA [1] = experiment: Splicing RT-qPCR assay, HTT canonical (CJ) and alternative (AJ) junction mRNA; format: cell-based; settings: Homo sapiens, A673 or K562 cells, 24 hours; for pIC50: decrease in canonical junction mRNA; for AC50: increase in alternative junction mRNA
Experimental: (§1) Compounds described herein were used to modulate RNA transcript abundance in cells. The expression of a target mRNA was measured by detecting the formation of an exon-exon junction in the canonical transcript (CJ). A compound mediated exon-inclusion event was detected by observing an increase in formation of a new junction with an alternative exon (AJ). Real-time qPCR assays were used to detect these splicing switches and interrogate the potency of various compounds towards different target genes. A high-throughput real time quantitative PCR (RT-qPCR) assay was developed to measure these two isoforms of the mRNA (CJ and AJ) for exemplary genes, such as HTT, SMN2, and MYB, together with a control housekeeping gene, GAPDH or GUSB or PPIA, used for normalization. Briefly, the A673 or K562 cell line was treated with various compounds described herein (e.g., compounds of Formula (I), (I), or (III)). After treatment, the levels of the HTT, MYB, or SMN2 mRNA targets were determined from each sample of cell lysate by cDNA synthesis followed by qPCR.
(§2) • Cells-to-CT 1-step kit: ThermoFisher A25602, Cells-to-CT lysis reagent: ThermoFisher 4391851C, TaqMan™ Fast Virus 1-Step Master Mix: ThermoFisher 4444436 • GAPDH: VIC-PL, ThermoFisher 4326317E (Assay: Hs99999905_ml)—used for K562/suspension cell lines • GUSB: VIC-PL, ThermoFisher 4326320E (Assay: Hs99999908_ml)—used for K562/suspension cell lines • PPIA: VIC-PL, ThermoFisher 4326316E (Assay: Hs99999904_ml)—used for A673/adherent cell lines
(§3) The A673 cell line was cultured in DMEM with 10% FBS. Cells were diluted with full growth media and plated in a 96-well plate (15,000 cells in 100 ul media per well). The plate was incubated at 37° C. with 5% CO2 for 24 hours to allow cells to adhere. An 11-point 3-fold serial dilution of the compounds was made in DMSO then diluted in media in an intermediate plate. Compounds were transferred from the intermediate plate to the cell plate with the top dose at a final concentration of 10 uM in the well. Final DMSO concentration was kept at or below 0.25%. The cell plate was returned to the incubator at 37° C. with 5% CO2 for an additional 24 hours.
(§4) The K562 cell line was cultured in IMDM with 10% FBS. For K562, cells were diluted with full growth media and plated in either a 96-well plate (50,000 cells in 50 uL media per well) or a 384-well plate (8,000-40,000 cells in 45 uL media per well). An 11-point 3-fold serial dilution of the compounds were made in DMSO then diluted in media in an intermediate plate. Compound was transferred from the intermediate plate to the cell plate with the top dose at a final concentration of 10 uM in the well. Final DMSO concentration was kept at or below 0.25%. Final volume was 100 uL for 96-well plate and 50 uL for 384-well plate. The cell plate was then placed in an incubator at 37° C. with 5% CO2 for 24 hours.
(§5) The cells were then gently washed with 50 uL-100 uL cold PBS before proceeding to addition of lysis buffer. 30 uL-50 uL of room temperature lysis buffer with DNAse I (and optionally RNAsin) was added to each well. Cells were shaken/mixed thoroughly at room temperature for 5-10 minutes for lysis to take place and then 3 uL-5 uL of room temperature stop solution was added and wells were shaken/mixed again. After 2-5 minutes, the cell lysate plate was transferred to ice for RT-qPCR reaction setup. The lysates could also be frozen at −80° C. for later use.
(§6) In some cases, a direct lysis buffer was used. An appropriate volume of 3×lysis buffer (10 mM Tris, 150 mM NaCl, 1.5%-2.5% Igepal and 0.1-1 U/uL RNAsin, pH 7.4) was directly added to either K562 or A673 cells in media and mixed by pipetting 3 times. The plates were then incubated at room temperature with shaking/rocking for 20-50 minutes to allow for lysis to take place. After this time, the cell lysate plate was transferred to ice to set up for the RT-qPCR reactions. The lysates could also be frozen at −80° C. for later use. […]

MYB mRNA [2] = experiment: Splicing RT-qPCR assay, MYB canonical (CJ) and alternative (AJ) junction mRNA; format: cell-based; settings: Homo sapiens, A673 or K562 cells, 24 hours; for pIC50: decrease in canonical junction mRNA; for AC50: increase in alternative junction mRNA
Experimental: as §1, §2, §3, §4, §5, §6

HTT mRNA [3] = experiment: Gene panel canonical junction qPCR assay, HTT CJ mRNA decrease; format: cell-based, human; settings: Homo sapiens
Experimental: as §1
(§7) The data analysis was performed by first determining the ΔCt vs the housekeeper gene. This ΔCt was then normalized against the DMSO control (ΔΔCt) and converted to RQ (relative quantification) using the 2^(−ΔΔCt) equation. The RQ were then converted to a percentage response by arbitrarily setting an assay window of 3.5 and 4.0 ΔCt for HTT-CJ and MYB-CJ respectively and an assay window of 9 and 3 ΔCt for HTT-AJ and MYB-AJ in 96 well format (50,000 K562 cells/well and 15,000 A673 cells per well) and an assay window of 3 and 4 ΔCt for HTT-CJ and MYB-CJ respectively and an assay window of 5 and 3 ΔCt for HTT-AJ and MYB-AJ respectively in 384 well format (8,000 K562 cells/well example). […] The percentage response was then fitted to the 4 parametric logistic equation to evaluate the concentration dependence of compound treatment. The increase in AJ mRNA is reported as AC50 (compound concentration having […] in AJ increase) while the decrease in CJ mRNA levels is reported as IC50 (compound concentration having 50) response in CJ decrease).
(§8) Additional studies were carried out for a larger panel of genes using the protocol provided above. The junction between flanking upstream and downstream exons was used to design canonical junction qPCR assays. At least one of the forward primer, reverse primer or the CY5-labeled 5′ nuclease probe (with 3′ quencher such as ZEN/Iowa Black FQ) was designed to overlap with the exon junction to capture the CJ mRNA transcript. BLAST was used to confirm the specificity of the probeset and parameters such as melting temperature, GC content, amplicon size, and primer dimer formation are considered during their design. Data for the decrease in CJ mRNA levels for four exemplary genes (HTT, SMN2, MYB, and Target C) analyzed in this panel are reported as IC50 (compound concentration having […] in CJ decrease).
(§9) A summary of the results from the panel is illustrated in Tables 5A and 51B, wherein “A” represents an IC50 of less than 100 nM; “B” represents an IC50 of between 100 nM and 1 μM; and “C” represents an IC50 of between 1 μM and 10 μM; and “D” represents an IC50 of greater than 10 μM.

MYB mRNA [4] = experiment: Gene panel canonical junction qPCR assay, MYB CJ mRNA decrease; format: cell-based, human; settings: Homo sapiens
Experimental: as §1, §7, §8, §9

SMN2 mRNA = experiment: Gene panel canonical junction qPCR assay, SMN2 CJ mRNA decrease; format: cell-based, human; settings: Homo sapiens
Experimental: as §1, §7, §8, §9

Target C mRNA = experiment: Gene panel canonical junction qPCR assay, Target C CJ mRNA decrease; format: cell-based; settings: Homo sapiens
Experimental: as §1, §7, §8, §9

[5] = canonical junction qPCR, read-out: HTT IC50 (decrease in CJ mRNA levels)
[6] = canonical junction qPCR, read-out: MYB IC50 (decrease in CJ mRNA levels)
[7] = canonical junction qPCR, read-out: SMN2 IC50 (decrease in CJ mRNA levels)
[8] = canonical junction qPCR, read-out: Target C IC50 (decrease in CJ mRNA levels)
[9] = decrease in CJ mRNA levels, read-out: HTT IC50
[10] = decrease in CJ mRNA levels, read-out: MYB IC50
[11] = decrease in CJ mRNA levels, read-out: SMN2 IC50
[12] = decrease in CJ mRNA levels, read-out: Target C IC50

Structure (SMILES)	pIC50 (HTT mRNA [1])	AC50 (HTT mRNA [1]) [µM]	pIC50 (MYB mRNA [2])	AC50 (MYB mRNA [2]) [µM]	pIC50 (HTT mRNA [3]; [5])	pIC50 (MYB mRNA [4]; [6])	pIC50 (SMN2 mRNA; [7])	pIC50 (Target C mRNA; [8])	pIC50 (HTT mRNA [3]; [9])	pIC50 (MYB mRNA [4]; [10])	pIC50 (SMN2 mRNA; [11])	pIC50 (Target C mRNA; [12])
Cc1cn2cc(NC(=O)c3ccc(N4CCNCC4)c4ccnnc34)nc2c(C)n1 [Compound 121]	< 5.00	> 10	6.00 to 7.00	1 to 10	< 5.00	6.00 to 7.00	6.00 to 7.00	< 5.00	–	–	–	–
Cc1cn2cc(NC(=O)c3ccc(N4CC5(CN(C)C5)C4)c4ccnnc34)cc(F)c2n1 [Compound 132]	5.00 to 6.00	1 to 10	6.00 to 7.00	0.1 to 1	5.00 to 6.00	6.00 to 7.00	> 7.00	< 5.00	–	–	–	–
Cc1cn2cc(NC(=O)c3ccc(N4CCN[C@@H](C)C4)c4ccnnc34)cc(F)c2n1 [Compound 147]	5.00 to 6.00	1 to 10	> 7.00	< 0.1	5.00 to 6.00	> 7.00	> 7.00	5.00 to 6.00	–	–	–	–
CNC1[C@@H]2C[C@H]1N(c1ccc(C(=O)Nc3cc(F)c4nc(C)cn4c3)c3nnccc13)C2 (some centres unmarked) [Compound 148]	5.00 to 6.00	1 to 10	5.00 to 6.00	1 to 10	5.00 to 6.00	5.00 to 6.00	5.00 to 6.00	5.00 to 6.00	–	–	–	–
CCc1cc2c(N3CCNCC3)ccc(C(=O)Nc3cc(F)c4nc(C)cn4c3)c2nn1 [Compound 185, 3-ethyl-N-{8-fluoro-2-methylimidazo[1,2-a]pyridin-6-yl}-5-(piperazin-1-yl)cinnoline-8-carboxamide]	< 5.00	> 10	6.00 to 7.00	0.1 to 1	< 5.00	6.00 to 7.00	> 7.00	< 5.00	–	–	–	–
Cc1cn2nc(NC(=O)c3sc(N4CCNC(C)C4)cc3F)cc2c(C)n1 (centres unmarked) [Compound 643]	–	–	–	–	–	–	–	–	< 5.00	< 5.00	< 5.00	< 5.00
Cc1cn2cc(NC(=O)c3ccc(C4CCNCC4)s3)cc(F)c2n1 [Compound 647]	–	–	–	–	–	–	–	–	< 5.00	5.00 to 6.00	< 5.00	< 5.00
Cc1cn2cc(NC(=O)c3sc(C4CCNCC4)c(Cl)c3Cl)cc(F)c2n1 [Compound 648]	–	–	–	–	–	–	–	–	< 5.00	< 5.00	< 5.00	< 5.00
CC1=NC2C(F)=CC(NC(=O)c3sc(C4CCNCC4)cc3F)=CC2O1 (centres unmarked) [Compound 657]	–	–	–	–	–	–	–	–	< 5.00	< 5.00	< 5.00	< 5.00
CC1=NC2C(F)=CC(NC(=O)c3sc(C4CCNCC4)cc3F)=CC2S1 (centres unmarked) [Compound 658]	–	–	–	–	–	–	–	–	< 5.00	< 5.00	< 5.00	< 5.00
Cc1cn2cc(NC(=O)c3sc(N4CCNC(C)C4)c(Cl)c3Cl)cc(F)c2n1 (centres unmarked) [Compound 659]	–	–	–	–	–	–	–	–	6.00 to 7.00	6.00 to 7.00	5.00 to 6.00	5.00 to 6.00
Cc1cn2cc(NC(=O)c3cc(Cl)c(N4CCNC(C)C4)s3)cc(F)c2n1 (centres unmarked) [Compound 660]	–	–	–	–	–	–	–	–	6.00 to 7.00	> 7.00	5.00 to 6.00	5.00 to 6.00
COc1cc(N2CCNCC2=O)sc1C(=O)Nc1cc(F)c2nc(C)cn2c1 [Compound 662]	–	–	–	–	–	–	–	–	< 5.00	< 5.00	< 5.00	< 5.00
Cc1cn2cc(NC(=O)c3sc(C4CCNCC4)cc3Cl)cc(F)c2n1 [Compound 663]	–	–	–	–	–	–	–	–	6.00 to 7.00	6.00 to 7.00	< 5.00	5.00 to 6.00
Cc1cn2nc(NC(=O)c3sc(C4CCNCC4)cc3F)nc2c(C)n1 [Compound 665]	–	–	–	–	–	–	–	–	> 7.00	> 7.00	5.00 to 6.00	6.00 to 7.00
